Experimental data taken from patent US10195156B2, “Compounds and compositions for intracellular delivery of agents” (ModernaTX, Inc., priority 2015, dated 2019).

Key:
IL-6 = experiment: Cytokine production induced by sample formulations: IL-6; type: in vivo; conditions: mice, i.v., 0.5 mpk, 6 hours; for IL-6: in pg/mL (unit assumed)
Text: The introduction of foreign material into a mammalian body induces an innate immune response that promotes cytokine production. Such immune responses to, for example, nanoparticle compositions including therapeutic and/or prophylactic agents, are undesirable. The induction of certain cytokines is thus measured to evaluate the […] of nanoparticle compositions. The concentrations of various cytokines in mice upon intravenous administration of nanoparticle compositions presented in Tables 1, 1a, 17-1, 19-1, 20-1 and 21-1 at a dosage of 0.5 mpk was measured at 6 hours. The standard MC3 formulation and a PBS control were also tested.

[1] = pKa of nanoparticle compositions; type: physicochemical
[2] = system: modified luciferase expression; experiment: Expression of Luc in different organs (liver, lung, spleen, femur) 6 hours after intravenous administration; type: in vivo; conditions: i.v., 0.5 mpk
Description: The efficacy of the nanoparticle compositions presented in Tables 1, 1a, 17-1, 19-1, 20-1 and 21-1 was further evaluated by measuring the expression of modified luciferase in the liver, lung, spleen, and femur upon administration of a given composition. Formulations were administered intravenously to mice (n=3) at a dosage of 0.5 mpk and bioluminescence measured after 6 hours. The standard MC3 formulation and a PBS control were also tested.

IP-10 = experiment: Cytokine production induced by sample formulations: IP-10; type: in vivo; conditions: mice, i.v., 0.5 mpk, 6 hours; for IP-10: in pg/mL (unit assumed)
Procedure, shortened: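 Cytokine levels were quantified at 6 hours in mice given the nanoparticle compositions i.v. at 0.5 mpk. MC3 standard formulation and PBS served as comparators.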

[3] = system: luciferase (Luc) mRNA expression; experiment: Expression of Luc induced by sample formulations, whole-body bioluminescence after intravenous administration; type: in vivo; conditions: mice, i.v., 0.5 mg/kg
Procedure, shortened: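 Read-out is whole-body bioluminescence at 3, 6 and 24 h after a single intravenous dose of 0.5 mg/kg Luc mRNA in nanoparticle formulations. Groups of n=6 mice; PBS and standard MC3 formulation as references.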

[4] = Encapsulation efficiency of RNA (QUANT-IT RIBOGREEN RNA assay); type: physicochemical; conditions: for encapsulation efficiency, rank within the named table (in words): comparison amongst compositions
Procedure, shortened: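 RiboGreen fluorescence (ex ~480, em ~520 nm) measured after 15 min at 37 °C on samples at ~5 μg/mL in TE, pH 7.5, ± 2% Triton X-100 solution. After blank subtraction, free RNA is given as intact-sample signal divided by disrupted-sample signal.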

[5] = Particle size and polydispersity index of nanoparticle compositions (Zetasizer Nano ZS); type: physicochemical; conditions: for particle size, rank within the named table (in words): comparison amongst compositions
Procedure, shortened: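 Values are size and PDI readings from a Zetasizer Nano ZS. Measurements are taken in 1×PBS; zeta potential, by contrast, uses 15 mM PBS.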

[6] = Table 1, rows without footnote mark
[7] = Table 1, rows without footnote mark (lipid:DOPE:cholesterol:PEG-DMG 40:20:38.5:1.5, Luc mRNA; MC3 standard formulation)
[8] = Table 20-1, rows without footnote mark

In the case of `CCCCCCCCCN(CCCCCCCCC)CCN(CCCCCCCCC)CCN1CCN(CCN(CCCCCCCCC)CCCCCCCCC)CC1` [Compound 18, N^1-(2-(4-(2-(Dinonylamino)ethyl)piperazin-1-yl)ethyl)-N^1,N^2,N^2-trinonylethane-1,2-diamine], the IL-6 (IL-6; Table 4) is reported as 263, the pKa [1, 6] is reported as 6.17 and the “Total Flux Femur” value ([2]; Table 3, mice) is reported as 3.31E+06. For the same molecule, the “Total Flux Liver” value ([2]; Table 3, mice) was 3.91E+09, the “Total Flux Lung” value ([2]; Table 3, mice) was 1.87E+07 and the “Total Flux Spleen” value ([2]; Table 3, mice) was 1.60E+07. The IP-10 (IP-10; Table 4) was 655, the “Total Flux 3 hours” value ([3]; Table 2, 3 hours) was 2.13E+10 and the “Total Flux 6 hours” value ([3]; Table 2) was 1.76E+10. The “Total Flux 24 hours” value ([3]; Table 2) was 7.00E+08, the “total flux after 3 hours, rank within the named table (in words)” value ([3]; 3 hours) was “highest flux after 3 hours” and the “EE (%)” value [4, 6] was 98.4%. For the same molecule, the PDI [5, 6] was 0.120 and the “Size (nm)” value [5, 7] was 76.7 nm.
In the case of `CCCCCCCCCCCCN(CCCCCCCCCCCC)CCN1CCN(CCN(CCCCCCCCC)CCN(CCCCCCCCC)CCCCCCCCC)CC1` [Compound 19, N^1-(2-(4-(2-(Didodecylamino)ethyl)piperazin-1-yl)ethyl)-N^1,N^2,N^2-trinonylethane-1,2-diamine], the IL-6 (IL-6; Table 4) is reported as 70, the pKa [1, 6] is reported as 6.29 and the “Total Flux Femur” value ([2]; Table 3, mice) is reported as 2.75E+06. The “Total Flux Liver” value ([2]; Table 3, mice) was 1.89E+09, the “Total Flux Lung” value ([2]; Table 3, mice) was 2.27E+06 and the “Total Flux Spleen” value ([2]; Table 3, mice) was 8.28E+06. For the same molecule, the IP-10 (IP-10; Table 4) was 2326, the “Total Flux 3 hours” value ([3]; Table 2, 3 hours) was 1.06E+10 and the “Total Flux 6 hours” value ([3]; Table 2) was 6.52E+09. The “Total Flux 24 hours” value ([3]; Table 2) was 2.65E+09, the “EE (%)” value [4, 6] was 97.2% and the PDI [5, 6] was 0.100. For the same molecule, the “Size (nm)” value [5, 7] was 76.1 nm.
In the case of `CCCCCCCCCN(CCCCCCCCC)CCN1CCNCC1` [Compound 19-1, N-Nonyl-N-(2-(piperazin-1-yl)ethyl)nonan-1-amine], the IL-6 (IL-6; Table 19-4) is reported as 144.4, the pKa ([1]; Table 19-1) is reported as 6.76 and the “Total Flux Liver” value ([2]; Table 19-3, mice) is reported as 8.53E+05. The “Total Flux Lung” value ([2]; Table 19-3, mice) was 1.06E+04, the “Total Flux Spleen” value ([2]; Table 19-3, mice) was 1.58E+04 and the IP-10 (IP-10; Table 19-4) was 51.1. The “IP-10 induction, rank or comparison with IL-6 (in words)” value (“IP-10 induction, rank or comparison” below) (IP-10) was “lowest IP-10 expression”, the “Total Flux 3 hours” value ([3]; Table 19-2, 3 hours) was 6.77E+05 and the “Total Flux 6 hours” value ([3]; Table 19-2) was 1.85E+06. The “Total Flux 24 hours” value ([3]; Table 19-2) was 2.75E+05, the “EE (%)” value ([4]; Table 19-1) was 83.4% and the PDI ([5]; Table 19-1) was 0.071. For the same molecule, the “Size (nm)” value ([5]; Table 19-1) was 98.0 nm.
With `CCCCC/C=C\C/C=C\CCCCCCCCN(CCCCCCCC/C=C\C/C=C\CCCCC)CCN1CCNCC1` [Compound 19-3, (9Z,12Z)—N-((9Z,12Z)—Octadeca-9,12-dien-1-yl)-N-(2-(piperazin-1-yl)ethyl)octadeca-9,12-dien-1-amine] the IL-6 (IL-6; Table 19-4) was 5.4, the “IL-6 induction, rank within the named table (in words)” value (IL-6) was “lowest IL-6 expression” and the pKa ([1]; Table 19-1) was 7.24. The “Total Flux Liver” value ([2]; Table 19-3, mice) was 2.65E+05, the “Total Flux Lung” value ([2]; Table 19-3, mice) was 3.00E+04 and the “Total Flux Spleen” value ([2]; Table 19-3, mice) was 2.55E+05. For the same molecule, the IP-10 (IP-10; Table 19-4) was 177.5, the “Total Flux 3 hours” value ([3]; Table 19-2, 3 hours) was 1.69E+06 and the “Total Flux 6 hours” value ([3]; Table 19-2) was 1.21E+06. The “Total Flux 24 hours” value ([3]; Table 19-2) was 3.39E+05, the “EE (%)” value ([4]; Table 19-1) was 99.7% and the “encapsulation efficiency, rank within the named table (in words)” value [4] was “highest encapsulation efficiency”. For the same molecule, the PDI ([5]; Table 19-1) was 0.076, the “Size (nm)” value ([5]; Table 19-1) was 47.9 nm and the “particle size, rank within the named table (in words)” value [5] was “smallest particles”.
In the case of `CCCCCCCCCCCCN(CCCCCCCCCCCC)CCN1CCN(C)CC1` [Compound 19-4, N-Dodecyl-N-(2-(4-methylpiperazin-1-yl)ethyl)dodecan-1-amine], the IL-6 (IL-6; Table 19-4) is reported as 129.2, the pKa ([1]; Table 19-1) is reported as 7.09 and the “Total Flux Liver” value ([2]; Table 19-3, mice) is reported as 1.46E+05. The “Total Flux Lung” value ([2]; Table 19-3, mice) was 4.49E+04, the “Total Flux Spleen” value ([2]; Table 19-3, mice) was 3.69E+04 and the IP-10 (IP-10; Table 19-4) was 430.9. The “IP-10 induction, rank or comparison” value (IP-10) was “highest IP-10 expression”, the “Total Flux 3 hours” value ([3]; Table 19-2, 3 hours) was 6.61E+05 and the “Total Flux 6 hours” value ([3]; Table 19-2) was 4.75E+05. The “Total Flux 24 hours” value ([3]; Table 19-2) was 3.44E+05, the “EE (%)” value ([4]; Table 19-1) was 95.2% and the PDI ([5]; Table 19-1) was 0.071. For the same molecule, the “Size (nm)” value ([5]; Table 19-1) was 111.4 nm.
In the case of `CCCCC/C=C\C/C=C\CCCCCCCCN(CCCCCCCC/C=C\C/C=C\CCCCC)CCN1CCN(CCCCCCCCCCCC)CC1` [Compound 19-6, (9Z,12Z)—N-(2-(4-Dodecylpiperazin-1-yl)ethyl)-N-((9Z,12Z)-octadeca-9,12-dien-1-yl)octadeca-9,12-dien-1-amine], the IL-6 (IL-6; Table 19-4) is reported as 7571, the “IL-6 induction, rank within the named table (in words)” value (IL-6) is reported as “highest IL-6 expression” and the pKa ([1]; Table 19-1) is reported as 5.89. The “Total Flux Liver” value ([2]; Table 19-3, mice) was 3.27E+06, the “Total Flux Lung” value ([2]; Table 19-3, mice) was 1.81E+05 and the “Total Flux Spleen” value ([2]; Table 19-3, mice) was 3.47E+06. The IP-10 (IP-10; Table 19-4) was 433, the “IP-10 induction, rank or comparison” value (IP-10) was “highest IP-10 expression” and the “Total Flux 3 hours” value ([3]; Table 19-2, 3 hours) was 1.07E+07. The “Total Flux 6 hours” value ([3]; Table 19-2) was 1.27E+07, the “Total Flux 24 hours” value ([3]; Table 19-2) was 1.29E+06 and the “total flux / Luc expression, rank within the named table (in words)” value ([3]; each time point) was “next highest flux”. The “EE (%)” value ([4]; Table 19-1) was 16.9%, the “encapsulation efficiency, rank within the named table (in words)” value [4] was “lowest encapsulation efficiency” and the PDI ([5]; Table 19-1) was 0.088. For the same molecule, the “Size (nm)” value ([5]; Table 19-1) was 137.7 nm and the “particle size, rank within the named table (in words)” value [5] was “largest particles”.
With `CCCCCCCCCCCCN(CCO)CCN(CCCCCCCCCCCC)CCCCCC(=O)OCCCCC` [Compound 20-2, Pentyl 6-(dodecyl(2-(dodecyl(2-hydroxyethyl)amino)ethyl)amino)hexanoate] the IL-6 (IL-6; Table 20-4, formula (20-I)) was 118.5, the pKa [1, 8] was 6.60 and the “Total Flux Femur” value ([2]; Table 20-3, mice) was 1.07E+06. For the same molecule, the “Total Flux Liver” value ([2]; Table 20-3, mice) was 6.01E+08, the “Total Flux Lung” value ([2]; Table 20-3, mice) was 4.52E+06 and the “Total Flux Spleen” value ([2]; Table 20-3, mice) was 3.12E+07. The IP-10 (IP-10; Table 20-4, formula (20-I)) was 522.9, the “Total Flux 3 hours” value ([3]; Table 20-2, 3 hours) was 1.35E+09 and the “Total Flux 6 hours” value ([3]; Table 20-2) was 2.18E+09. The “Total Flux 24 hours” value ([3]; Table 20-2) was 6.49E+07, the “EE (%)” value [4, 8] was 91.6% and the PDI [5, 8] was 0.130. For the same molecule, the “Size (nm)” value [5, 8] was 71.8 nm.
In the case of `CCCCCCCCCCCCN(CCCCCCCCCCCC)CCN(CCO)CCCCCC(=O)OCCCCC` [Compound 20-3, Pentyl 6-((2-(didodecylamino)ethyl)(2-hydroxyethyl)amino)hexanoate], the IL-6 (IL-6; Table 20-4, formula (20-I)) is reported as 105.8, the pKa [1, 8] is reported as 6.82 and the “Total Flux Femur” value ([2]; Table 20-3, mice) is reported as 1.73E+06. For the same molecule, the “Total Flux Liver” value ([2]; Table 20-3, mice) was 4.33E+08, the “Total Flux Lung” value ([2]; Table 20-3, mice) was 6.08E+05 and the “Total Flux Spleen” value ([2]; Table 20-3, mice) was 6.35E+06. For the same molecule, the IP-10 (IP-10; Table 20-4, formula (20-I)) was 671.5, the “Total Flux 3 hours” value ([3]; Table 20-2, 3 hours) was 5.35E+09 and the “Total Flux 6 hours” value ([3]; Table 20-2) was 3.00E+09. The “Total Flux 24 hours” value ([3]; Table 20-2) was 6.49E+07, the “EE (%)” value [4, 8] was 95.8% and the PDI [5, 8] was 0.110. For the same molecule, the “Size (nm)” value [5, 8] was 76.4 nm.
